In patent US8846949B2, “Pyrrolopyrazoles as N-type calcium channel blockers” (Janssen Pharmaceutica NV, priority 2012, dated 2014):
Read-outs that look alike come from different tables or passages of the source.

What was measured:
N-type calcium channel = target: T1, N-type calcium channel (Homo sapiens, UniProt Q00975); assay: Automated electrophysiology assay (QPatch-HT whole-cell patch clamp); assay type: cell-based; conditions: 1 μM
T1 construct: expressed in transfected cells
How it was run: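 Whole-cell QPatch recordings used 10 mM Ba²⁺/TEA external solution and CsCl internal solution. Trains of 15 pulses at 5 Hz to +20 mV from −80 mV were applied; 1st- and 15th-pulse currents were normalized to control, with CdCl2 zeroing. […]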

[1] = target: T2, N-type calcium channel α1B (Cav2.2), β3 and α2δ subunits (Homo sapiens, UniProt Q00975); assay: Functional assay, antagonism of N-type calcium channel (FDSS calcium mobilization response to KCl depolarization); assay type: cell-based
T2 construct: expressed in transfected cells
How it was run: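 HEK cells stably co-expressing α1B (Cav2.2), β3 and α2δ subunits were loaded with calcium dye, preincubated with compound for 5 min, then depolarized with 50 mM KCl and read for 3 min by FDSS fluorescence. IC50 from six-point curves, normalized to KCl maximum and buffer minimum.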

T1 sequence (Q00975 whole entry): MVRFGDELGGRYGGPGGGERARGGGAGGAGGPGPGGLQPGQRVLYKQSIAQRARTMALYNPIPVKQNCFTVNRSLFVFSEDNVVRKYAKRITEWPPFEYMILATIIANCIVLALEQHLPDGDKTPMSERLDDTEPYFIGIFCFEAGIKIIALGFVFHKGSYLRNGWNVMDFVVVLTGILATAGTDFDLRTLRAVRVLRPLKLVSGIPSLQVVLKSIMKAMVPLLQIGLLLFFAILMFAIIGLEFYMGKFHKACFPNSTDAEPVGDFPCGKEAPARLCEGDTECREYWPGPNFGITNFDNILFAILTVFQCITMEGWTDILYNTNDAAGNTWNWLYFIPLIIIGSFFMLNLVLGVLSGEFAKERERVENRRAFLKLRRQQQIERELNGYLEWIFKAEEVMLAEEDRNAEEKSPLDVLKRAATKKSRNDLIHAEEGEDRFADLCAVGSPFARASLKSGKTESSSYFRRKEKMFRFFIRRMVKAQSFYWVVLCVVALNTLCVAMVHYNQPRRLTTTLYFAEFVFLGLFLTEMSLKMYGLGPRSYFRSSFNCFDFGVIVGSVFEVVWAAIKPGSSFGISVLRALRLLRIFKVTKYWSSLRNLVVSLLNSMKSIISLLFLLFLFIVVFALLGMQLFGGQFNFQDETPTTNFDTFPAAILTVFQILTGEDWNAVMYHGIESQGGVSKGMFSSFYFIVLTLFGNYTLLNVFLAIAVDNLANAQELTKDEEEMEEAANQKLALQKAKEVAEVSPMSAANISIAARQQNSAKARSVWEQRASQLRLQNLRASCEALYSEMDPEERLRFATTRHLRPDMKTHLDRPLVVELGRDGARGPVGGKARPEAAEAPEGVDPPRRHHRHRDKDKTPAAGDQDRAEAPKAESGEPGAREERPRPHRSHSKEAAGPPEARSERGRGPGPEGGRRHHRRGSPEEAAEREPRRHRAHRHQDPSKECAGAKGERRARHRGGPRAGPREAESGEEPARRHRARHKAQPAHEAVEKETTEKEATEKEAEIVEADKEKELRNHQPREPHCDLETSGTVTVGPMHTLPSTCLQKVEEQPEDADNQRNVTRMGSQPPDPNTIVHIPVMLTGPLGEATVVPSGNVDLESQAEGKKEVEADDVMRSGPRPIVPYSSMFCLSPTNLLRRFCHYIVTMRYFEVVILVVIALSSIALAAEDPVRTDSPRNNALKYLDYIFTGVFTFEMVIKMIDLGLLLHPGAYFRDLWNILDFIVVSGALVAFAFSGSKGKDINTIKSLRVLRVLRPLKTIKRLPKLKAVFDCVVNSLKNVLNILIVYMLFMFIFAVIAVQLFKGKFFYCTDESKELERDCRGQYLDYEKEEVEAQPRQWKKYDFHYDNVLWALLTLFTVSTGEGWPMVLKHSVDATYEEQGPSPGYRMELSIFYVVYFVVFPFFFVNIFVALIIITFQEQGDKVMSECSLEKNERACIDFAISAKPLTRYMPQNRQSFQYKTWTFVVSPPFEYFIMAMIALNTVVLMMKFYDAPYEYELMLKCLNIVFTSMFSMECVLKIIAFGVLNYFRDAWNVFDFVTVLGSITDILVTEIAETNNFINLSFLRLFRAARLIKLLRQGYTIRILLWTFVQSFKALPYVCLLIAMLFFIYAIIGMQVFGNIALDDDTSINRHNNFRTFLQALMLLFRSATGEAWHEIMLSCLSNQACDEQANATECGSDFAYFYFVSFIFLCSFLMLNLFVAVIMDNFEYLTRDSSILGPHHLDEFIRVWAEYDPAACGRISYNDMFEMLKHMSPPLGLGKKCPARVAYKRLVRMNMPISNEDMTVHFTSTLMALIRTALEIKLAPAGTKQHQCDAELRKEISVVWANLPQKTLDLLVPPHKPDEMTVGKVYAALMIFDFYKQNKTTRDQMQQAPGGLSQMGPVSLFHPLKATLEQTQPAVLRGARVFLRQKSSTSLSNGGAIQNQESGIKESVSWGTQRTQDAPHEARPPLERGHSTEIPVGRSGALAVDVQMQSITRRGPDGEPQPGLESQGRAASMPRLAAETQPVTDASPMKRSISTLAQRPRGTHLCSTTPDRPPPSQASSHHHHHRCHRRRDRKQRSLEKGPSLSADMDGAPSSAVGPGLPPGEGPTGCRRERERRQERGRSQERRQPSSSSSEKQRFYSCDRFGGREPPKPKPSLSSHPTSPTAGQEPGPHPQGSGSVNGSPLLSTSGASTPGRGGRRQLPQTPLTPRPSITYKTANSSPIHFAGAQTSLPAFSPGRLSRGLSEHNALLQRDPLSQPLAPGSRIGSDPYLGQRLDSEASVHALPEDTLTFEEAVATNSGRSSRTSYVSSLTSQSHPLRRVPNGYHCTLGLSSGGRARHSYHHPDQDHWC
T1 sequence (P54284 whole entry partner): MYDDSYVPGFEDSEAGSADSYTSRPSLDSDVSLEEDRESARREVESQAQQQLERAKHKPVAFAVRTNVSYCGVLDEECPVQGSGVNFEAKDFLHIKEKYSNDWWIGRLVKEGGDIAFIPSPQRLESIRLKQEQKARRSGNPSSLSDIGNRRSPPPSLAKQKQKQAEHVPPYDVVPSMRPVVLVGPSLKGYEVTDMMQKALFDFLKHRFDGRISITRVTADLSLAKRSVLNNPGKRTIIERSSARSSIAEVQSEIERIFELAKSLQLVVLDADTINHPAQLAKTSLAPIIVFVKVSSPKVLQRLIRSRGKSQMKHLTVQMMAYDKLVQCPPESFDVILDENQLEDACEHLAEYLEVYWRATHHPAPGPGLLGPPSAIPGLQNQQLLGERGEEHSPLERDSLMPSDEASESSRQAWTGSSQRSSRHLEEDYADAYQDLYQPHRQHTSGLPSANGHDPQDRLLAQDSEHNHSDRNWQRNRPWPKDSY
T1 sequence (P54289 25-956 partner limits assumed): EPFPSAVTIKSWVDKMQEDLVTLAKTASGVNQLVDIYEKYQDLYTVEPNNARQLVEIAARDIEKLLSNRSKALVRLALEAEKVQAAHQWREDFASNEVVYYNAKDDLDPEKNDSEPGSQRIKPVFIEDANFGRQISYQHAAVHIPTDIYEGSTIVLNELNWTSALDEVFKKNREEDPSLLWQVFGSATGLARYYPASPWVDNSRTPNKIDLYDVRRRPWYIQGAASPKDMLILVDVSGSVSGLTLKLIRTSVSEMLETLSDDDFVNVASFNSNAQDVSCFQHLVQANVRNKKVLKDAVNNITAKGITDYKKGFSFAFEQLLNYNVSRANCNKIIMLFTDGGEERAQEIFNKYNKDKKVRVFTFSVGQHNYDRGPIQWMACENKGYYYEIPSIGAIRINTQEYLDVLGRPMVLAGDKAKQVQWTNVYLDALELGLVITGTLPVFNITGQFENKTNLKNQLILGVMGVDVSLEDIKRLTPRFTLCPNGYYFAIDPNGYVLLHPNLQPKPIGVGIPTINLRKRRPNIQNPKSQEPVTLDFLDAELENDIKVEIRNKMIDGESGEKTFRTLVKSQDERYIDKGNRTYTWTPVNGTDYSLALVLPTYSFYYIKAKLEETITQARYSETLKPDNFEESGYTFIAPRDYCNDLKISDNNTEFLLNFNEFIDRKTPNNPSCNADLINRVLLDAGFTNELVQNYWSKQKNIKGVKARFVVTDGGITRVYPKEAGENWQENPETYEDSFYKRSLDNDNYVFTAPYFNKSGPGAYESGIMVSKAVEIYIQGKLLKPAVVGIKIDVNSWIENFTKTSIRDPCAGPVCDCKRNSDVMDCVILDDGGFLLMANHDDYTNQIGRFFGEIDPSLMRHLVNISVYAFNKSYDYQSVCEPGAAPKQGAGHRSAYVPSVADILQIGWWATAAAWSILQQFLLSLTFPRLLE
T1 sequence (P54289 957-1103 partner limits assumed): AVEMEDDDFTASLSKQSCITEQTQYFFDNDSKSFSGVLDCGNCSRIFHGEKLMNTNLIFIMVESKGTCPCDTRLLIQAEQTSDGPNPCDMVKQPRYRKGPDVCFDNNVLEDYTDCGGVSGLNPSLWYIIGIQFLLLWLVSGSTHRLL
T2 sequence (Q00975 whole entry): as the sequence (Q00975 whole entry) above
T2 sequence (P54284 whole entry partner): as the sequence (P54284 whole entry partner) above
T2 sequence (P54289 25-956 partner limits assumed): as the sequence (P54289 25-956 partner limits assumed) above
T2 sequence (P54289 957-1103 partner limits assumed): as the sequence (P54289 957-1103 partner limits assumed) above

Structure (SMILES): COc1ccc(-c2c3c(nn2-c2ccccc2OC)CN(S(=O)(=O)C(C)C)C3)cn1 [Cpd 97, 2-(2-Methoxyphenyl)-3-(6-methoxypyridin-3-yl)-5-[(1-methylethyl)sulfonyl]-2,4,5,6-tetrahydropyrrolo[3,4-c]pyrazole]
- inhibition at 1 µM (N-type calcium channel; high frequency (15th pulse of train, 5 Hz), read-out: QPatch at High Frequency % Inhibition): 60%
- inhibition at 1 µM (N-type calcium channel; low frequency (1st pulse of train), read-out: QPatch at Low Frequency % Inhibition): 40%
- inhibition at 0.33 µM ([1]; 0.33 μM compound, FDSS, 50 mM KCl): 67%
- IC50 ([1]; HEK stable cell line, 50 mM KCl depolarization, six-point concentration-response): 43 nM
